In patent publication US20240043394A1, “PROTEASOME ENHANCERS AND USES THEREOF” (Board of Trustees of Michigan State University, priority 2020, published 2024):

Tests used:
[1] = target: T1, purified human 20S proteasome (Homo sapiens, UniProt P25787+P60900); assay: 20S proteasome small peptide assay, combination of all three fluorogenic substrates (CT-L/Casp-L/T-L); type: biochemical; parameters: key to 20S proteasome activation, classed in words: compounds that exhibit a maximum fold enhancement of <2 fold (i.e. <200%) at a concentration >20 μM were considered inactive; details: for AC200 CT-L/Casp-L/T-L: concentration needed to double (200%) the rate of substrate degradation vs vehicle; for AC200 CT-L/Casp-L/T-L / Max Fold CT-L/Casp-L/T-L: three probes combined; for Max Fold CT-L/Casp-L/T-L: maximum fold rate increase vs vehicle control; for 20S proteasome activation, classed in words: concentrations tested 1.25 μM to 80 μM
T1 construct: purchased Boston Biochem or Life Sensors E-360 or ps020
Procedure: (§1) In vitro testing, 20S activation: The 20S proteasome activity of the compounds was assessed by utilizing the standard fluorogenic 7-amino-methylcoumarin (AMC) conjugated small peptide substrates that correspond to each of the catalytic sites in the 20S proteasome: chymotryptic-like site (Suc-LLVY-AMC), caspase-like site (Z-LLE-AMC), and trypsin-like site (Boc-LRR-AMC). When the small peptide substrate is degraded by the 20S proteasome, the AMC fluorophore is released and quantified to measure the rate of proteolytic cleavage. The 20S proteasome activity of the small molecules was evaluated at varying concentrations to determine the concentration at which the rate of proteolysis was doubled (i.e. the concentration needed to induce 200% activity) compared to the vehicle control (hereafter named as AC200). Concentrations ranging from 1.25 μM to 80 μM of each of compound were added to wells that contained 0.5 nM of purified human proteasome.
(§2) The overall enhancement of the rate of proteolysis of the 20S proteasome by a small molecule was first evaluated by adding a combination of all three peptide substrates to the treated sample. The combination of all three substrates represents a more accurate measurement of proteolytic activity of the proteasome because the catalytic sites housed in the β ring of the 20S proteasome communicate through allosteric interactions. For example, when a protein substrate encounters the chymotryptic-like site, a conformational change will occur activating the caspase-like site.^61 The individual contribution of each of the three catalytic sites was subsequently evaluated by adding only the corresponding peptide probes to gain insight into the contribution of each site on the overall enhanced proteolytic activity.
(§3) The fluorescent output, due to release of the AMC fluorophore, was then converted to the fold increase compared to a vehicle control sample, and the AC200 was calculated. […] (Table 1).
(§4) AC200 represents the concentration needed to double (e.g., 200%) the rate of substrate degradation compared to vehicle control. Max fold is the maximum fold rate increase compared to vehicle control.
(§5) 20S Proteasome Small Peptide Assay: Activity assays were carried out in a black flat/clear bottom 96 well plate with a […] volume. Concentrations of the potential activators, varying from 80 μM to 1.25 μM, were added to the well that contained 1 nM 20S proteasome purchased from either Boston Biochem (catalog number E-360) or Life Sensors (catalog number ps020), in a […] buffer at a pH of 7.8. This solution was left to incubate at 37° C. for 15 minutes. For the assay for the overall proteasome activity, 13.33 μM of each small peptide substrate is added. The 96 well plate is then placed into a plate reader (SpectraMax M5e spectrometer) and the plate reader will take a fluorescent reading every 5 minutes for an hour at 37° C. The enzymatic activity of the 20S proteasome is quantified using the fluorescent output at 380-460 nm, which is converted to max fold increase over the untreated sample. The activity of the individual catalytic assays is identical to the assay that assesses the overall activity of the 20S proteasome except only one small peptide substrate is added. To evaluate the activity of the CT-L and the Casp-L sites, 10 μM of the Suc-LLVY-AMC (Boston Biochem S-280) and Z-LLE-AMC (Boston Biochem S-230) were added, respectively. To evaluate the activity of the T-L site, 20 μM of the Boc-LRR-AMC (Boston Biochem S-300) is added.

[2] = target: T2, purified human 20S proteasome, Casp-L site (Homo sapiens, UniProt P25787+P60900); assay: 20S proteasome small peptide assay, Z-LLE-AMC caspase-like probe; type: biochemical; details: for AC200 Casp-L site: concentration needed to double rate vs vehicle; for Max Fold Casp-L site: maximum fold rate increase vs vehicle
T2 construct: purchased Boston Biochem or Life Sensors E-360 or ps020
Procedure: as §1, §2, §3, §4, §5

[3] = target: T3, purified human 20S proteasome, CT-L site (Homo sapiens, UniProt P25787+P60900); assay: 20S proteasome small peptide assay, Suc-LLVY-AMC chymotryptic-like probe; type: biochemical; details: for AC200 CT-L site: concentration needed to double rate vs vehicle; for Max Fold CT-L site: maximum fold rate increase vs vehicle
T3 construct: purchased Boston Biochem or Life Sensors E-360 or ps020
Procedure: as §1, §2, §3, §4, §5

[4] = target: T4, purified human 20S proteasome, T-L site (Homo sapiens, UniProt P25787+P60900); assay: 20S proteasome small peptide assay, Boc-LRR-AMC trypsin-like probe; type: biochemical; details: for AC200 T-L site: concentration needed to double rate vs vehicle; for Max Fold T-L site: maximum fold rate increase vs vehicle
T4 construct: purchased Boston Biochem or Life Sensors E-360 or ps020
Procedure: as §1, §2, §3, §4, §5

[5] = system: A53T mutant α-synuclein in Hek-293T cells; assay: In cell degradation of A53T α-synuclein (Western blot); type: cell-based; details: 10 μM, 10 hours
Procedure: Error bars denote standard deviation. One-way ANOVA statistical analysis was used to determine statistical significance (ns=not significant, *p<0.05, **p<0.01, ***p<0.001, ****p<0.0001) (FIG. 4B).
Cellular efficacy: The A53T mutation of α-synuclein has been linked to early on-set familial Parkinson's disease and appears to oligomerize faster than the wild-type protein. […] Hek-293T cells were transiently transfected with an inducible Tet-One A53T mutant α-synuclein. The cells were treated with 100 ng/mL of doxycycline to induce the production of the A53T mutant. […] The cells were then lysed and the remaining A53T α-synuclein was visualized and quantified via Western Blotting (FIG. 4, n=4).
In cell degradation of A53T α-synuclein: In a 6 well plate, Hek293T cells were grown to 80% confluency and then transfected using Xfect biopolymer transfection system with the Tet-One A53T α-synuclein plasmid. 24 hours post transfection, 100 ng/mL of doxycycline was added to induce A53T α-synuclein expression. After 24 hours of protein induction, media was removed that contained the doxycycline and was washed with PBS. Media with the desired drug concentration or DMSO was added and treated for 10 hours. After the cells were treated with the test compounds or DMSO, the cells were scraped and the pelleted (300 g for 5 minutes). The supernatant was taken off and the cell pellet was washed with ice cold PBS and then lysed with RIPA buffer with added protease inhibitors. The cell lysate was incubated for 20 minutes on ice. The lysate was centrifuged for 15 minutes at 500 g and then the supernatant was collected. Concentrated SDS loading buffer was added and the samples were boiled for 10 minutes. The samples were then resolved on a 4-20% Tris-glycine SDS-PAGE gel and immunoblotted with mouse monoclonal anti α-synuclein IgG (1:2000) and anti-mouse HRP-linked IgG (1:2000). Blots were developed with ECL Westem reagent and imaged with an Azure Biosystems 3000 imager.

SMILES | AC200 CT-L/Casp-L/T-L [1] | Max Fold CT-L/Casp-L/T-L [1] | AC200 Casp-L site [2] | AC200 CT-L site [3] | Max Fold CT-L site [3] | AC200 T-L site [4] | Max Fold T-L site [4] | 20S proteasome activation, classed in words [1] | Max Fold Casp-L site [2] | decrease of A53T mutant α-synuclein, in words [5] | potency relative to compound 7 (times less potent) ([1]; 20S proteasome activation, compared with electron poor counterpart 7) | decrease of accumulated A53T α-synuclein ([5]; normalized to vehicle)
Clc1ccc2c(c1)N(Cc1ccccc1)c1ccccc1S2 [Compound 1, 10-Benzyl-2-chloro-10H-phenothiazine] | 1.5 µM | 2 fold | >80 µM | 2.8 µM | 3 fold | 3.1 µM | 2 fold |  |  |  |  | 
Oc1ccc(CN2c3ccccc3Sc3ccc(Cl)cc32)cc1 [Compound 8, 4-((2-Chloro-10H-phenothiazin-10-yl)methyl)phenol] | >80 µM |  | >80 µM | >80 µM |  | >80 µM |  | inactive |  | no decrease |  | 
COc1cccc(CN2c3ccccc3Sc3ccc(Cl)cc32)c1 [Compound 4, 2-Chloro-10-(3-methoxybenzyl)-10H-phenothiazine] | 1.5 µM | 4 fold | 1.3 µM | >80 µM |  | 5.4 µM | 2 fold |  | 4 fold |  |  | 
Nc1cccc(CN2c3ccccc3Sc3ccc(Cl)cc32)c1 [Compound 9, 3-((2-Chloro-10H-phenothiazin-10-yl)methyl)aniline] | 3.6 µM | 8 fold | 3.8 µM | 6.5 µM | 9 fold | 9.2 µM | 10 fold |  | 10 fold |  | 3 × | 
O=C(C=CN1c2ccccc2Sc2ccc(Cl)cc21)Nc1ccccc1 [Compound 17, 3-(2-chloro-10H-phenothiazin-10-yl)-N-phenylpropenamide] | 40 µM | 2.5 fold | >80 µM | >80 µM |  | 80 µM | 2 fold |  |  |  |  | 
CN(C(=O)CCN1c2ccccc2Sc2ccc(Cl)cc21)c1ccc(F)cc1 [Compound 18, 3-(2-chloro-10H-phenothiazin-10-yl)-N-(4-fluorophenyl)-N-methylpropanamide] |  | 3 fold |  |  |  |  |  |  |  |  |  | 
CCOC(=O)[C@]1(c2ccccc2)N=C(c2ccc(OC)cc2)N(Cc2ccccc2)[C@@H]1c1ccc(NCc2ccccc2)cc1 [TCH-165, reference compound] |  |  |  |  |  |  |  |  |  |  |  | 40%

Continued, in another order:

AC200 CT-L/Casp-L/T-L [1] | Max Fold CT-L/Casp-L/T-L [1] | AC200 Casp-L site [2] | AC200 CT-L site [3] | Max Fold CT-L site [3] | AC200 T-L site [4] | Max Fold T-L site [4] | 20S proteasome activation, classed in words [1] | Max Fold Casp-L site [2] | SMILES | decrease of A53T mutant α-synuclein, in words [5] | potency relative to compound 7 (times less potent) ([1]; 20S proteasome activation, compared with electron poor counterpart 7) | decrease of accumulated A53T α-synuclein ([5]; normalized to vehicle)
>80 µM |  | >80 µM | >80 µM |  | >80 µM |  | inactive |  | NC(=O)CCCCN1c2ccccc2Sc2ccc(Cl)cc21 [Compound 11, 5-(2-Chloro-10H-phenothiazin-10-yl)pentanamide] |  |  | 
2.4 µM | 6 fold | 9.7 µM | 2.4 µM | 6 fold | 1.9 µM | 8 fold |  | 4 fold | COC(=O)c1cccc(CN2c3ccccc3Sc3ccc(Cl)cc32)c1 [Compound 5, Methyl 3-((2-chloro-10H-phenothiazin-10-yl)methyl)benzoate] |  |  | 
>80 µM |  | >80 µM | >80 µM |  | >80 µM |  | inactive |  | N#CCCCCN1c2ccccc2Sc2ccc(Cl)cc21 [Compound 10, 5-(2-chloro-10H-phenothiazin-10-yl)pentanenitrile] |  |  | 
>80 µM |  | >80 µM | >80 µM |  | >80 µM |  | inactive |  | CN(C)C(=O)CCN1c2ccccc2Sc2ccc(Cl)cc21 [Compound 16, 3-(2-chloro-10H-phenothiazin-10-yl)-N,N-dimethylpropanamide] |  |  | 
>80 µM |  | >80 µM | >80 µM |  | >80 µM |  | inactive |  | CC(=O)Oc1ccc(CN2c3ccccc3Sc3ccc(Cl)cc32)cc1 [Compound 6, 4-((2-Chloro-10H-phenothiazin-10-yl)methyl)phenyl acetate] |  |  | 
>80 µM |  | >80 µM | >80 µM |  | >80 µM |  | inactive |  | NC(=O)C=CN1c2ccccc2Sc2ccc(Cl)cc21 [Compound 15, 3-(2-chloro-10H-phenothiazin-10-yl)propenamide] |  |  | 
1.1 µM | 8 fold | 1.2 µM | 1.1 µM | 9 fold | 1.6 µM | 8 fold |  | 12 fold | O=[N+]([O-])c1cccc(CN2c3ccccc3Sc3ccc(Cl)cc32)c1 [Compound 7, 2-Chloro-10-(3-nitrobenzyl)-10H-phenothiazine] |  |  | 
>80 µM |  | >80 µM | >80 µM |  | >80 µM |  | inactive |  | CC(C)(C)OC(=O)c1ccc(CN2c3ccccc3Sc3ccc(Cl)cc32)cc1 [Compound 3, Tert-butyl 4-((2-chloro-10H-phenothiazin-10-yl)methyl)benzoate] |  |  | 
